Experimental data from ChEMBL document CHEMBL2434880, “Synthesis and assessment of catechol diether compounds as inhibitors of trypanosomal phosphodiesterase B1 (TbrPDEB1)” (Bioorg Med Chem Lett, 2013).

Columns and labels:
[1] = target: T1, Class 1 phosphodiesterase PDEB1 (Trypanosoma brucei) (UniProt Q8WQX9); assay: Inhibition of Trypanosoma brucei recombinant PDEB1 at 10 uM by spectrophotometric analysis relative to control
T1 sequence (whole entry): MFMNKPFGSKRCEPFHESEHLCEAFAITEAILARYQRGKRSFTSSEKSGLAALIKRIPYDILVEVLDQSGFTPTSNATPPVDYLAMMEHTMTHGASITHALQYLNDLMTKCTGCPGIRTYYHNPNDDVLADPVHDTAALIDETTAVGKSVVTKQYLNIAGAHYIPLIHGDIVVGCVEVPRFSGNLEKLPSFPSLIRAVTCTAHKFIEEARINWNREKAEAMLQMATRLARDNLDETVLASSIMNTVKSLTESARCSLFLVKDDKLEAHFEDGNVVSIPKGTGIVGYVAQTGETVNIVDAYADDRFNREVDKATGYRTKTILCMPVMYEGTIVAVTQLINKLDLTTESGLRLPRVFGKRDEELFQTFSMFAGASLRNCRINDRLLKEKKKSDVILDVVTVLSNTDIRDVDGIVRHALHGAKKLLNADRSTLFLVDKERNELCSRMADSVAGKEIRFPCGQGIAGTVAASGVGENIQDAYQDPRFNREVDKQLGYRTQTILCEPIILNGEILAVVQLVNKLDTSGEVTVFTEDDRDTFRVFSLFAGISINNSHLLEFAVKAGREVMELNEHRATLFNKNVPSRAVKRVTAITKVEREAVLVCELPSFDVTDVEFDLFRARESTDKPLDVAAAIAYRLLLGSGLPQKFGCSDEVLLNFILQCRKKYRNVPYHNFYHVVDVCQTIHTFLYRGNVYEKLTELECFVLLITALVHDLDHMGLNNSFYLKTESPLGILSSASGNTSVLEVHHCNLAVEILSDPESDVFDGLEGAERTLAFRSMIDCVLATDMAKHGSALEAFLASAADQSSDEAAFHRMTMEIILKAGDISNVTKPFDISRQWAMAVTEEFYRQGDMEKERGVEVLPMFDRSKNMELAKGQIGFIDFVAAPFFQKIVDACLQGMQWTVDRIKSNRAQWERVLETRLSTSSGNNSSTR

[2] = target: T2, Class 1 phosphodiesterase PDEB1 (Trypanosoma brucei, UniProt Q8WQX9); assay: Inhibition of Trypanosoma brucei PDEB1
T2 sequence (Q8WQX9 whole entry): T1 sequence (whole entry)

[3] = target: Phosphodiesterase 4 (Homo sapiens, UniProt P27815+Q08499+Q07343+Q08493); assay: Inhibition of human PDE4; type: protein assay
[4] = Inhibition of Trypanosoma brucei PDEB2
[5] = test system: Trypanosoma brucei brucei; assay: Antitrypanosomal activity against Trypanosoma brucei brucei; type: functional, organism-based

Row | Structure (SMILES) | inhibition [1] [%] | further results
1 | COc1ccc(-c2ccncc2)cc1OC1CCCC1 | 18.7 | –
2 | COc1ccc(-c2cccc3ncccc23)cc1OC1CCCC1 | 69.1 | –
3 | COc1ccc(-c2ccnc(NC3CCCCC3)n2)cc1OC1CCCC1 | 29.8 | –
4 | COc1ccc(-c2ccnc(NC3CCCCC3)c2)cc1OC1CCCC1 | 27.1 | –
5 | COc1ccc(-c2ccnc(NC3CCCCCC3)n2)cc1OCc1ccccc1 | 22.3 | –
6 | COc1ccc(-c2ccnc(NCc3ccccc3)c2)cc1OCc1ccccc1 | 7.2 | –
7 | COc1ccc(-c2ccnc(NC3CCCC3)n2)cc1OCc1ccccc1 | 21.8 | –
8 | COc1ccc(C2=NN(C3CCCC3)C(=O)[C@H]3CC=CC[C@@H]23)cc1OC1CCCC1 | – | IC50 [2]: 278 nM; IC50 [3]: 10 nM; IC50 [4]: 544 nM
9 | COc1ccc(-c2ccnc(NCc3ccccc3)n2)cc1OCc1ccccc1 | 18.5 | –
10 | COc1ccc(C2=NN(C3CCCCCC3)C(=O)[C@H]3CC=CC[C@@H]23)cc1OCCCCOc1ccc(-c2nn[nH]n2)cc1 | – | EC50 [5]: 80 nM; IC50 [3]: 0.6 nM; IC50 [4]: 6 nM
11 | COc1ccc(-c2ccnc(NC3CCCCCC3)n2)cc1OC1CCCC1 | 20.6 | –
12 | COc1ccc(-c2ccnc(N(C)C)c2)cc1OC1CCCC1 | 34 | –
13 | COc1ccc(-c2ccnc(NC3CCC3)n2)cc1OC1CCCC1 | 3.9 | –
14 | COc1ccc(-c2ccnc(NC3CCCC3)n2)cc1OC1CCCC1 | 12.7 | –

Now from value to compound, other results behind:

Row | inhibition [1] [%] | Structure (SMILES) | further results
15 | 32.9 | COc1ccc(-c2ccnc(NCc3ccccc3)n2)cc1OC1CCCC1 | –
16 | 28.4 | COc1ccc(-c2ccnc(NC3CCCCC3)c2)cc1OCc1ccccc1 | –
17 | 16.1 | COc1ccc(-c2ccnc(NC3CCC3)n2)cc1OCc1ccccc1 | –
18 | 48 | COc1ccc(-c2ccnc(N(C)C)c2)cc1OCc1ccccc1 | –
19 | 7.6 | COc1ccc(-c2ccc(OC)c(OC3CCCC3)c2)cn1 | –
20 | 14.5 | COc1ccc(-c2ccnc(N(C)C)n2)cc1OCc1ccccc1 | –
21 | 23.2 | COc1ccc(-c2ccnc(NC3CCCCC3)n2)cc1OCc1ccccc1 | –
22 | 15.8 | COc1ccc(-c2ccnc(N(C)C)n2)cc1OC1CCCC1 | –
